How the values were obtained:
female BALB/c mice = experiment: SEB-induced peripheral tolerance in mice, spleen and splenocyte readouts (Example 7); type: in vivo
Method: Peripheral tolerance/inactivation was induced in female BALB/c mice by a single intraperitoneal injection of 30 μg SEB. Mice were treated with a positive control (anti-CTLA4) or various doses of USP9X Inhibitor 3. Spleens and splenocytes were harvested at 24 hr after the last dose. […] No changes in IL-2 and IFNγ levels were detected in the supernatants from SEB-restimulated splenocytes.

[1] = system: SEB-exhausted human PBMCs; experiment: cells; type: cell-based
[2] = system: CD3/CD28 Activated T Cells; experiment: anti-CD3/CD28 T cell activation assay (Example 2); type: cell-based; conditions: FIG. 6
Method: (§1) Given the reported role of ITCH and Cbl-b in T cell tolerance and as a negative regulator of T-cell receptor (TCR)/[…] 28 (CD28) signaling, the effects of USP9X inhibition were evaluated in a CD3/CD28 activation assay and in a mixed lymphocyte reaction (MLR) assay.

SEB-restimulated PBMCs = experiment: IFNγ production in SEB-restimulated PBMCs (Example 1); type: cell-based, human; conditions: FIG. 5 (Inhibitor 3 at 10 μM)
From the text: The effect of USP9X inhibition on PBMCs that have been re-stimulated with SEB was also investigated. […] This is consistent with the notion that the SEB-restimulated T cells were in a state of exhaustion or rendered tolerant to SEB.

[3] = system: Human total T cells (CD3+); experiment: Human T cell activation with CD3/CD28 activator, IFNγ ELISA (Example 6); type: cell-based; conditions: 4 days, two donors, FIGS. 11-12
Method: Human total T cells (CD3+) were isolated using EasySep™ immunomagnetic beads (Stemcell Technologies) from healthy human PBMCs (Hemacare). Cells were stained with Cell Trace Violet proliferation dye (Invitrogen), and treated with agent or DMSO. Cells were also stimulated with a CD3/CD28 activator (Stemcell Technologies). After 4 days of incubation, cells and supernatant were collected; cells were washed with staining buffer (PBS with 2% FBS) twice and centrifuged (350 g for 5 min). Cells were stained with LIVE/DEAD stain (Invitrogen), FITC-CD4 (BD Pharmingen) and CD8 (BD Pharmingen) in 100 μL volume for 30 mins at 4° C. Cells were washed twice as described above, resuspended in 100 μL staining buffer and analyzed using a BD Canto II (BD Biosciences). Data was analyzed using FlowJo V10 (FlowJo LLC). Secreted IFNγ was measured by ELISA (Dakewe Biotech Co., Ltd). All data were analyzed by Graphpad Prism 6.0 (GraphPad Software).

[4] = system: mixed lymphocyte reaction; experiment: mixed lymphocyte reaction (MLR) assay (Example 2); type: cell-based; conditions: FIG. 7
Method: as §1

A375 melanoma cells = experiment: Allogeneic PBMC-mediated cytotoxicity of A375 melanoma cells, caspase 3/7 (Example 4); type: cell-based, human; conditions: with SEB-stimulated PBMCs, FIG. 9A/9B
Method: A375 cells incubated alone, in the absence of SEB-stimulated PMBCs, with either compound had no significant effect on cellular apoptosis.

[5] = highest dose group, 24 hr after last dose

SMILES	Spleen protein level of Cbl-b, reduction (female BALB/c mice; [5]) [%]	Spleen protein level of ITCH, reduction (female BALB/c mice; [5]) [%]	Spleen protein levels of Cbl-b and ITCH (female BALB/c mice; lower doses)	IL-2 and IFNγ levels in supernatants from SEB-restimulated splenocytes (female BALB/c mice; splenocytes harvested 24 hr after last dose)	IFNγ production compared to DMSO or negative control compound 5 [1]	EC50 ([1]; Homo sapiens, PBMC, 48 h, read-out: EC50 value for IFNγ secretion) [nM]	IFNγ production [2]	IFNγ production following SEB-restimulation (SEB-restimulated PBMCs)	IFNγ production [3]	IFNγ secretion in the MLR assay [4]	EC50 ([4]; Lymphocyte, read-out: EC50 for IFNγ secretion in the MLR assay) [nM]	A375 apoptosis (caspase 3/7 activity) (A375 melanoma cells)
CNC[C@H](C(=O)N1CC2=C(C1)CN(S(=O)(=O)c1ccc3c(c1)OCCO3)C2)c1cccc(Cl)c1 [USP9X Inhibitor 3, (2R)-2-(3-chlorophenyl)-1-[5-(2,3-dihydro-1,4-Benzodioxine-6-sulfonyl)-1H,2H,3H,4H,5H,6H-pyrrolo[3,4-c]pyrrol-2-yl]-3-(methylamino)propan-1-one]	81	64	no notable changes	No changes	significantly increase IFNγ production	100 to 1000	the most profound effect	restored IFNγ production to varying degrees depending on the donor	increased	promoted IFNγ secretion	100 to 1000	enhanced A375 apoptosis in a concentration-dependent manner
O=S(=O)(c1ccc(-c2ncco2)cc1)N1Cc2cnc(C(O)c3cccc(N4CCNCC4)c3)cc2C1 (stereo not shown) [USP9X Inhibitor 4, [2-[4-(1,3-oxazol-2-yl)benzenesulfonyl]-1H,2H,3H-pyrrolo[3,4-c]pyridin-6-yl][3-(piperazin-1-yl)phenyl] methanol]	–	–	–	–	–	–	–	–	increased	–	–	–

Reference: US20210346356A1, “INHIBITING UBIQUITIN SPECIFIC PEPTIDASE 9X” (FORMA THERAPEUTICS, INC., priority 2018, published 2021)
